ChEMBL document CHEMBL1201862, “PubChem BioAssay data set” (2004)
Active and inactive are the calls of the source.

How the values were obtained:
[1] = microbe, parasite or virus in culture; format: functional; details: Mycobacterium tuberculosis
Protein skinhead-1 = biological target: T1, Protein skinhead-1 (Caenorhabditis elegans, UniProt P34707); format: functional
T1 sequence (P34707 whole entry): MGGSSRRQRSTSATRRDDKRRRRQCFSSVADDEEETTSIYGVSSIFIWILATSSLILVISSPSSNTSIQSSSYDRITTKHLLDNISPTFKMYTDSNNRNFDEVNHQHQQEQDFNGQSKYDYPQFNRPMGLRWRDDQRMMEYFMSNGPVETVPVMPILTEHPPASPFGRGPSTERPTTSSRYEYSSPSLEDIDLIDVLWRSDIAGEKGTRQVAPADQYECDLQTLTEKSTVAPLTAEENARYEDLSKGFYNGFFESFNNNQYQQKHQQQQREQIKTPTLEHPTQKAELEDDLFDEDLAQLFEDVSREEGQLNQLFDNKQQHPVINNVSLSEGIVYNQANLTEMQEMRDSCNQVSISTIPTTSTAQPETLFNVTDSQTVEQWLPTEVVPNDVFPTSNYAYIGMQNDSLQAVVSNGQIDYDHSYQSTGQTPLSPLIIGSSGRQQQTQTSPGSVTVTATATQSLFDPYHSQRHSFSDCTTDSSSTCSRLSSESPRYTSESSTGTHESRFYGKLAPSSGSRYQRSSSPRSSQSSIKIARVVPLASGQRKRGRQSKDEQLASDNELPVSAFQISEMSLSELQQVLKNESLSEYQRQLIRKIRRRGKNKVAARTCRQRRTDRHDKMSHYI

[2] = biological target: T2, Corticotropin-releasing factor receptor 2/Corticotropin-releasing factor-binding protein (Homo sapiens, UniProt P24387+Q13324); experiment: Dose Response confirmation of uHTS hits for small molecule antagonists of the CRF-binding protein and CRF-R2 receptor complex.; format: functional; details: read-out: IC50_Mean
T2 sequence (Q13324 whole entry): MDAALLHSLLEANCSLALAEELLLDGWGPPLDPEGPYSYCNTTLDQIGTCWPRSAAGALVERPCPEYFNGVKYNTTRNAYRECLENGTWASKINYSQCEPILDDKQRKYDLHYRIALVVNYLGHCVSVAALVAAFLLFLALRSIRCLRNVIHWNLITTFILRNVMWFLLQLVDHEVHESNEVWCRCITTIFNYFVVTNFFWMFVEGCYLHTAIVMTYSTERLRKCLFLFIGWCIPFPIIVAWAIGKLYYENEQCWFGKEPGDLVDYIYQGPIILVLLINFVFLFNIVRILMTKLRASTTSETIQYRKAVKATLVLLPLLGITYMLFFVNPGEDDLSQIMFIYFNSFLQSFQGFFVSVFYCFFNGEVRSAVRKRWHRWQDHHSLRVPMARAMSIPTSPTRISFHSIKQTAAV
T2 sequence (P24387 whole entry): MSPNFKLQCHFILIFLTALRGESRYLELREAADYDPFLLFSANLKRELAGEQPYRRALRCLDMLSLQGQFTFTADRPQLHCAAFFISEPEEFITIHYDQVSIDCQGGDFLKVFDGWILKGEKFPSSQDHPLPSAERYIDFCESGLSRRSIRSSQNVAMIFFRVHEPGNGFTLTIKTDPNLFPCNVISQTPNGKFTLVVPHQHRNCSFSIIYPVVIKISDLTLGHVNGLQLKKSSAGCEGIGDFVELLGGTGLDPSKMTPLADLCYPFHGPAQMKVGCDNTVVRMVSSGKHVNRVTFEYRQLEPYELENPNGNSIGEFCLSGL

[3] = biological target: T2, Corticotropin-releasing factor receptor 2/Corticotropin-releasing factor-binding protein; experiment: activators of CRF receptor 2 with binding protein – uHTS hits, confirmation (AID 602473); format: functional; details: read-out: EC50_Mean
INS1 = experiment: beta cell apoptosis inhibitors, cytokine rescue, dose response, luminescence, retest (AID 449756); format: functional, cell-based; details: Rattus norvegicus;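 also: cell death triggered by IL-1 beta plus TNF-alpha plus IFN-gamma mixture; protective hits raise ATP signal compared with cytokine alone wells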
Fatty acid synthase [4] = biological target: T3, Fatty acid synthase (Homo sapiens, UniProt P49327); experiment: FAS thioesterase domain inhibitors, dose response, biochemical, endpoint fluorescence intensity, uHTS hits (AID 624327); format: functional;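 also: fluorescence from hydrolysis of an O-methyl fluorescein acyl ester substrate by the enzyme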
Fatty acid synthase [5] = biological target: T3, Fatty acid synthase; experiment: FAS thioesterase domain inhibitors, dose response, biochemical, kinetic fluorescence intensity (AID 624326); format: functional;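 also: rate of fluorescence rise from hydrolysis of a fluorogenic O-methyl fluorescein ester substrate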
[6] = biological target: T4, Calpain-2 catalytic subunit (Sus scrofa, UniProt P43367); experiment: pig calpain II inhibitor potency, dose response, biochemical, fluorogenic peptide substrate (AID 1420); format: functional
T4 sequence (P43367 whole entry): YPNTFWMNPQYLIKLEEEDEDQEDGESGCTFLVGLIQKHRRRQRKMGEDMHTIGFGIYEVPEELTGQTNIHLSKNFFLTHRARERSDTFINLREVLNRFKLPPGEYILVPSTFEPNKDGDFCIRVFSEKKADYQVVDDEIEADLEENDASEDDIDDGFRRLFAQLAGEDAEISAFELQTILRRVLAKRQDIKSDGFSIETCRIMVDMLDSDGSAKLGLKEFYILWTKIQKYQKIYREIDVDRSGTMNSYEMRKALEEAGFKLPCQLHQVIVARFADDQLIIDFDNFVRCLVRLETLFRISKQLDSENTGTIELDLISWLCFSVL

[7] = biological target: T5, Polyadenylate-binding protein 1 (Homo sapiens, UniProt P11940); experiment: PABP1 MLLE–PAM2 binding inhibitor potency, dose response, biochemical, fluorescence polarization, FITC-PAM2 peptide (AID 602259); format: functional; details: read-out: IC50_Mean
[8] = biological target: T5, Polyadenylate-binding protein 1; experiment: PABP1 MLLE–PAM2 interaction inhibitors, dose response, miRNA deadenylation inhibitor project, biochemical, fluorescence polarization, Cy5-PAM2 peptide, secondary (AID 602260); format: functional; details: read-out: IC50_Mean
[9] = inhibitors of clade B AD8 Env fusion, dose response, cell-based, cherry-pick (AID 652062); format: functional;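 also: luciferase signal from cell-cell fusion driven by HIV-1 clade B AD8 Env; potency is for inhibitors of fusion seen as a drop in luminescence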
Streptococcus = experiment: Group A Streptococcus viability loss, dose response, counter-screen for streptokinase expression inhibitor project, luminescence, BacTiterGlo (AID 1915); format: functional, organism-based;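 also: potency for reduction of bacterial viability or growth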
[10] = system: Streptococcus sp. 'group A'; experiment: growth inhibition of control SK(-) GAS strain, dose response, counter-screen for streptokinase expression inhibitor project, luminescence, kanamycin, BacTiterGlo, confirmation (AID 1900); format: functional, organism-based
Streptokinase A = biological target: T6, Streptokinase A (Streptococcus pyogenes serotype M1, UniProt P10520); experiment: S. pyogenes streptokinase expression inhibitors, potency, dose response, plasminogen activation absorbance, OD405 (AID 1914); format: functional, Streptococcus pyogenes M1 GAS;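 also: secreted streptokinase activity via plasminogen activation per viability signal from cell pellet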
T6 sequence (P10520 whole entry): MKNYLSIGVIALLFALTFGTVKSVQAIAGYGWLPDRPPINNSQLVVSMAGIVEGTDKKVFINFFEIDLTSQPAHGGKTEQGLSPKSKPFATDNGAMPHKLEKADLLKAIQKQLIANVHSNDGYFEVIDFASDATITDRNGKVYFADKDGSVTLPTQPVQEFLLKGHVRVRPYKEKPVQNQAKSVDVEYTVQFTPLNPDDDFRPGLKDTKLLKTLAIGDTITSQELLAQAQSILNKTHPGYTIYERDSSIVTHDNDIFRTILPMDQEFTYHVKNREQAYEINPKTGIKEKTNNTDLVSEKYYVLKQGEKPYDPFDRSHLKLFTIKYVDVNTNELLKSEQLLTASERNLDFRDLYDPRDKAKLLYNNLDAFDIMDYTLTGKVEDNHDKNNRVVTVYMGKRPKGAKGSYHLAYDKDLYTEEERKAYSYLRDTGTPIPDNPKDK

T5 sequence (P11940 whole entry): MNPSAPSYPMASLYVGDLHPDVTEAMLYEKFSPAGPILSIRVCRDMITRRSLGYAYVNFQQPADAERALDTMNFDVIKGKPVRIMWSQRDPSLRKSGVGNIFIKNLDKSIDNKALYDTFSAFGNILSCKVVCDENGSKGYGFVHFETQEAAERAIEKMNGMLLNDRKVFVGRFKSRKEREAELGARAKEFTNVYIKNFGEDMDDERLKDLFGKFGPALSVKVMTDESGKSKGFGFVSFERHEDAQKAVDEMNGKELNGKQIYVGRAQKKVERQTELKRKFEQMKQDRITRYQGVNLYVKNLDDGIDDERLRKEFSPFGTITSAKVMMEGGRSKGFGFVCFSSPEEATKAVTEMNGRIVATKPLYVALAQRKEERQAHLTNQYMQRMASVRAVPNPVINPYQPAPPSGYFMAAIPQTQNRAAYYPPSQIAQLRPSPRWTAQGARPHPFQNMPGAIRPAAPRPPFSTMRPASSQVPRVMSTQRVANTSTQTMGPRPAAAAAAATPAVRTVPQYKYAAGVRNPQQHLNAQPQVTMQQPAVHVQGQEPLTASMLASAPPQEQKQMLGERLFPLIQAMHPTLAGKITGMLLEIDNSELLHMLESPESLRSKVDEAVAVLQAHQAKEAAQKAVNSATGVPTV
T3 sequence (P49327 whole entry, the tested form may be a part): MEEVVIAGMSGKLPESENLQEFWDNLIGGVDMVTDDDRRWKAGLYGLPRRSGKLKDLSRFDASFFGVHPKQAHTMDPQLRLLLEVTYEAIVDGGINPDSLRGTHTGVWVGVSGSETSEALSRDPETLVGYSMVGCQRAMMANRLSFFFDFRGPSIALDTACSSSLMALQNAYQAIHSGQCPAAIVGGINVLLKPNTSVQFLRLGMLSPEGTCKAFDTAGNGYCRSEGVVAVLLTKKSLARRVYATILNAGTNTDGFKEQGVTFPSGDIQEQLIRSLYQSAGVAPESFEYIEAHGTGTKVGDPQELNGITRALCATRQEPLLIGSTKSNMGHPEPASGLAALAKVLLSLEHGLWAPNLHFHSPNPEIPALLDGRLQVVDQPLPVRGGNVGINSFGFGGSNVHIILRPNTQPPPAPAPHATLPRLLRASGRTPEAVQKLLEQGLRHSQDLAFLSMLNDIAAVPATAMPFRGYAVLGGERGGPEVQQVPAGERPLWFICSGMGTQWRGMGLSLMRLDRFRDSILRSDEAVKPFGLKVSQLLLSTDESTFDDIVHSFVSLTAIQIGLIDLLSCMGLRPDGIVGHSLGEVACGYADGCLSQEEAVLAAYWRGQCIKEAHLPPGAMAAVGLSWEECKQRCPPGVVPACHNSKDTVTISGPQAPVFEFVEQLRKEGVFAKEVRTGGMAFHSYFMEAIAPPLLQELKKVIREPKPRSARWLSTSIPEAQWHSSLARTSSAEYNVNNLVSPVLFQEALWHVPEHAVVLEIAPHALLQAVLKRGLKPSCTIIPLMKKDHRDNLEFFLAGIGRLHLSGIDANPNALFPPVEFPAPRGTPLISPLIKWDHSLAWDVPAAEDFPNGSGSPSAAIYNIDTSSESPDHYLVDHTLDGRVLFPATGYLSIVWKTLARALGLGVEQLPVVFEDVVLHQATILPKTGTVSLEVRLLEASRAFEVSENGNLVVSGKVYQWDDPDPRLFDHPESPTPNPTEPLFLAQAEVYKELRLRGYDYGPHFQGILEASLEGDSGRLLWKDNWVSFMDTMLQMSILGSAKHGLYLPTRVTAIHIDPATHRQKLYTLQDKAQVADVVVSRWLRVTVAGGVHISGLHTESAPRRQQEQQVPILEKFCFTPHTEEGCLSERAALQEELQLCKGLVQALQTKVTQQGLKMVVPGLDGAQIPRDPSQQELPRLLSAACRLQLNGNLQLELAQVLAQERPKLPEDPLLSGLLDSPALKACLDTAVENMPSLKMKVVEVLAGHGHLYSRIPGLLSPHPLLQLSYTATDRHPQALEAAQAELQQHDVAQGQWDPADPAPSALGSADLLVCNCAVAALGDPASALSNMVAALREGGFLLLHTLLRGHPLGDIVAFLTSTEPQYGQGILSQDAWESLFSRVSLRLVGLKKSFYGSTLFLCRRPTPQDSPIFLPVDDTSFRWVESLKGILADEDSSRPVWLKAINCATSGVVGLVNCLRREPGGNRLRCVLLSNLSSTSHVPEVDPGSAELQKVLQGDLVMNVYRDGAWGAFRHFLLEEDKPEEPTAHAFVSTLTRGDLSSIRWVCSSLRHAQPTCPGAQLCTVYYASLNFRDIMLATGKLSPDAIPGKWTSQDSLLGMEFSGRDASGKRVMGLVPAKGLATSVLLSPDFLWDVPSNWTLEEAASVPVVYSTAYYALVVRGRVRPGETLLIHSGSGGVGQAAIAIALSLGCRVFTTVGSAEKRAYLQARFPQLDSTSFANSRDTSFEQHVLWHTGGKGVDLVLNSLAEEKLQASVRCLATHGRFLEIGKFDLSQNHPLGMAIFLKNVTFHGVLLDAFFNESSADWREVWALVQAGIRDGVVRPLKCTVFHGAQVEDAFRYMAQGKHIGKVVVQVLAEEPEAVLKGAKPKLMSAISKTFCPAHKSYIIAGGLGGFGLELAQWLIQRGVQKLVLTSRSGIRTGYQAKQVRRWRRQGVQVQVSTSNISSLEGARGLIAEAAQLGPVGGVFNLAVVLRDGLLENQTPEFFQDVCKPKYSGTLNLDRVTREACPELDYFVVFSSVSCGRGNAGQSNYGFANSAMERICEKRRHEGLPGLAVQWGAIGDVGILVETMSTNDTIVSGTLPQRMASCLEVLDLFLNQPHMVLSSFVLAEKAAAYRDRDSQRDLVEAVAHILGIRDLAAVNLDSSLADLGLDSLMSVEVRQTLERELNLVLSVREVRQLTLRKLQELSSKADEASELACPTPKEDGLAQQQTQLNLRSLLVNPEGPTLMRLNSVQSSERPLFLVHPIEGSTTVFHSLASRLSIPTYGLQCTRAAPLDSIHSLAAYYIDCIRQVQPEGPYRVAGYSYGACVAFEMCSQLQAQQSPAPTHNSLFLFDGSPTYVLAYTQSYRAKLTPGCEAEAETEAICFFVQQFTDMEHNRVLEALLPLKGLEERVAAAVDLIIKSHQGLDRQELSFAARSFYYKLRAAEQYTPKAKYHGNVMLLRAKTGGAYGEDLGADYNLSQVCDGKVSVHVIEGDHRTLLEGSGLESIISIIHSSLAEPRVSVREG

O=C1C=C(c2ccc3[nH]ccc3c2)C[C@@H](c2ccc(Cl)cc2)C1
CC50 [1]: > 40 µM (active)

CCCCCOc1ccc(NC2=CC(=O)CCC2)cc1
CC50 [1]: > 40 µM (active)

COc1ccc(-n2c(C)nc3cc(C(=O)NCc4ccco4)ccc32)cc1
IC50 (Protein skinhead-1): > 100 µM (inactive)

CC(=O)Cc1cc(O)c2ccccc2c1OC(=O)c1ccc(Br)cc1
IC50 [2]: > 47.1 µM (inactive)
EC50 [3]: > 53 µM (inactive)
AC50 (INS1): 14.9 µM (active)

COc1cccc(NC(=O)C(C)Oc2ccccc2)c1 (stereo not drawn)
IC50 (Protein skinhead-1): > 100 µM (inactive)

CCOC(=O)C1CCN(C(=O)COC(=O)c2cc([N+](=O)[O-])ccc2N2CCOCC2)CC1
IC50 (Fatty acid synthase [4]): 4.15 µM (active)
IC50 (Fatty acid synthase [5]): 7.1 µM (active)

COc1ccccc1CN(C)CC(=O)Nc1ccc(Cl)cc1F
IC50 [6]: > 50 µM (not active)

O=C(CCc1ccccc1)NC1CCSC1=O (stereo not drawn)
IC50 (Protein skinhead-1): > 100 µM (inactive)

COc1ccccc1S(=O)(=O)N1CCn2cccc2C1C (stereo not drawn)
IC50 [2]: > 47.1 µM (inactive)
EC50 [3]: > 53 µM (inactive)

CCN(CC)S(=O)(=O)c1ccc2c(c1)nc(SC(C)C(N)=O)n2-c1ccc(OC)cc1 (stereo not drawn)
IC50 (Protein skinhead-1): > 100 µM (inactive)

CCN(CC)C(=O)CSc1nnc2nnc3cc(C)ccc3n12
IC50 [7]: 49.8 µM (inactive)
IC50 [8]: > 66 µM (inactive)

Cc1nc(NC(=S)NC(=O)c2ccco2)sc1C(=O)N(C)C
IC50 [7]: > 66 µM (inactive)
IC50 [8]: > 66 µM (inactive)

Clc1ccc(-c2nnc(-c3ccccc3)o2)c(Cl)c1
IC50 (Protein skinhead-1): 51.6 µM (inactive)

Cc1ccc(C(=O)NC(=S)Nc2ccc3[nH]c(O)nc3c2)c(C)c1
IC50 [7]: > 66 µM (inactive)
IC50 [8]: > 66 µM (inactive)

Cn1cccc1Cc1nnc(SCC(=O)N2CCN(c3ccccc3)CC2)n1-c1ccc(F)cc1
IC50 [2]: > 47.1 µM (inactive)
EC50 [3]: > 53 µM (inactive)

O=C(NCCc1nnc2ccc(NCc3ccc(Cl)cc3)nn12)c1ccccc1
IC50 [6]: 6.17 µM (not active)

CCc1ccc(S(=O)(=O)c2nnn3c2nc(N2CCOCC2)c2ccccc23)cc1
IC50 (Fatty acid synthase [4]): 14.3 µM (active)
IC50 (Fatty acid synthase [5]): 6.03 µM (active)

O=C(NC(=S)NCCO)c1cn(-c2ccccc2)nc1-c1ccccc1
IC50 [7]: > 66 µM (inactive)
IC50 [8]: > 66 µM (inactive)

O=S(=O)(Oc1ccccc1C(=S)N1CCOCC1)c1ccc(Cl)cc1
IC50 [7]: > 66 µM (inactive)
IC50 [8]: > 66 µM (inactive)

O=S(=O)(c1cccs1)N1CCN(Cc2nc(O)c3cc(Br)cc(Br)c3n2)CC1
IC50 (Fatty acid synthase [4]): 12.5 µM (active)
IC50 (Fatty acid synthase [5]): 9.03 µM (active)

Cn1nc(C(C)(C)C)cc1NC(=O)Nc1cc(Cl)cc(Cl)c1
CC50 [1]: 11.3 µM (active)

N#C/C(=C\c1cccn1-c1ccccc1)C(=O)NC1CCCCC1
IC50 [2]: > 47.1 µM (inactive)
EC50 [3]: > 53 µM (inactive)

O=C(/C=C/c1cc([N+](=O)[O-])ccc1OC(F)F)NCc1ccc(Cl)cc1
IC50 (Fatty acid synthase [4]): 0.351 µM (active)
IC50 (Fatty acid synthase [5]): 0.413 µM (active)

COc1ccc(NS(=O)(=O)c2ccc3c(c2)OCCO3)cc1OC
AC50 [9]: 7.24 µM (active)

COc1ccc(CNC(C)C2COc3ccccc3O2)c(OC)c1 (stereo not drawn)
IC50 (Protein skinhead-1): > 100 µM (inactive)

N#Cc1ccc(CSc2ccc(S(=O)(=O)N3CCCC3)cn2)cc1
IC50 (Fatty acid synthase [4]): 8.8 µM (active)
IC50 (Fatty acid synthase [5]): 6.67 µM (active)

COc1ccc(N=C(S)NC(NC(=O)c2ccc(Cl)cc2Cl)C(Cl)(Cl)Cl)c([N+](=O)[O-])c1 (stereo not drawn)
EC50 (Streptococcus): > 150 µM (not active)
EC50 [10]: 1.22 µM (active)
EC50 (Streptokinase A): 20.9 µM (active)
IC50 [7]: > 66 µM (inactive)
IC50 [8]: > 66 µM (inactive)

Cc1c(OCC(=O)NCCN2CCOCC2)ccc2c3c(c(=O)oc12)CCC3
IC50 [2]: > 47.1 µM (inactive)
EC50 [3]: > 53 µM (inactive)

Cn1nc(C(=O)O)c(=O)n(C)c1=O
IC50 [7]: > 66 µM (inactive)
IC50 [8]: > 66 µM (inactive)

O=C(NCC(=O)N1CCOCC1)c1ccc(Cl)c(Cl)c1
IC50 (Protein skinhead-1): > 100 µM (inactive)

Cc1nnc(NC(=O)CSc2nnc(Cc3ccccc3)n2-c2ccccc2)s1
IC50 [2]: > 47.1 µM (inactive)
EC50 [3]: > 53 µM (inactive)

Cc1ccc(-n2ccnc(SCC(=O)NC3CCCCC3)c2=O)cc1F
IC50 [7]: > 66 µM (inactive)
IC50 [8]: > 66 µM (inactive)

Cc1c(C)n(C)c2ccc(C(=O)NCCCN(C)C3CCCCC3)cc12
IC50 (Protein skinhead-1): > 100 µM (inactive)

CCCCCC(=O)OCc1ccc(C2=CC(=O)CC(C)(C)C2=O)cc1
IC50 (Fatty acid synthase [4]): 7.22 µM (active)
IC50 (Fatty acid synthase [5]): 6.78 µM (active)

COc1cccc(NC(=O)COc2c(F)c(F)c(C(F)(F)F)c(F)c2F)c1
IC50 (Fatty acid synthase [4]): 12.2 µM (active)
IC50 (Fatty acid synthase [5]): 10.5 µM (active)

COCC(=O)Nc1ccc2c(c1)C(=O)N(C)C[C@@H](OC)[C@@H](C)CN(C)[C@H](C)CO2
AC50 [9]: 14.8 µM (active)

O=C(CN(c1ccc(Cl)cc1)S(=O)(=O)c1ccccc1)N/N=C/c1ccco1
IC50 (Fatty acid synthase [4]): 10.8 µM (active)
IC50 (Fatty acid synthase [5]): 6.94 µM (active)
